Among the data in patent publication US8129396B2, “2-[1H-benzimidazol-2(3H)-ylidene]-2-(pyrimidin-2-yl)acetamides and 2-[benzothiazol-2(3H)-ylidene]-2-(pyrimidin-2-yl)acetamides as kinase inhibitors” (Telik, Inc., priority 2008, dated 2012) are IC50 values, retold here.

A word on the IC50: it is the midpoint of a concentration-inhibition curve.

The target in experiment [1] is T1, VEGFR2 kinase (Homo sapiens, UniProt P35968).
T1 construct: purchased Cell Signaling Technology
As to the kind of experiment: VEGFR2 kinase assay. The conditions noted are these: 6 μM ATP, 1 mM MnCl2; rounded to 1 significant figure. Format: biochemical. An outline of the steps:
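VEGFR2 phosphorylates CSKtide with 6 μM ATP and 1 mM MnCl2 for 1 hr, otherwise following the Aurora A kinase protocol. Detection by IMAP fluorescence polarization, binding reagent diluted 1:1200 in 1:1 binding buffer A/B. Run in duplicate with solvent control.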

Experiment [2] concerns HL60 (human promyelocytic leukemia) cells. The experiment in a line: HL60 cytotoxicity assay (CellTiter-Glo). Format: cell-based. The following applies: HL-60, 72 h, cytotoxicity, three days culture, read-out: HL60 IC50. The source says:
The cell lines HL60 (human promyelocytic leukemia) and HCT116 (human colon carcinoma) were obtained from the American Type Culture Collection, Manassas, Va., U.S.A., and HUVEC-2 (human umbilical vein endothelial cells) from BD Biosciences, Bedford, Mass., U.S.A. Aurora A kinase was obtained from Upstate Biotech, Billerica, Mass., U.S.A.; Aurora B kinase from BPS Bioscience, San Diego, Calif., U.S.A.; and VEGFR2 kinase from Cell Signaling Technology, Danvers, Mass., U.S.A. The IMAP FP Screening Express kit was obtained from Molecular Devices, Sunnyvale, Calif., U.S.A.; the CellTiter-Glo assay kit from Promega Corporation, Madison, Wis., U.S.A.; and the Cellular DNA Cytometric Analysis Reagent Kit and BrdU labeling and detection kit from Roche Diagnostics Corporation, Indianapolis, Ind., U.S.A. All products were used in accordance with manufacturer's directions. Kinase inhibition assays and the histone phosphorylation (p-H3) assay were conducted in duplicate, and the cytotoxicity and HUVEC proliferation assays were conducted in triplicate, in each case with solvent control.
Log-phase cells were trypsinized, collected by centrifugation, and resuspended in a small volume of fresh medium, and the density of viable cells was determined following Trypan Blue staining. Cells were diluted in fresh media (1×10^4 cells/mL for HL60 and 4×10^4 cells/mL for HCT116 cells), the test compounds (concentrations between 0.1 μM and 200 μM, dissolved in DMSO, 50 μL) added immediately after dilution to achieve a final DMSO concentration of 0.5%, then the suspensions added at 150 μL/well to 96-well plates, and incubated overnight to allow attachment in the case of adherent cells. The cells were cultured for three days (about three doubling times). The cells were then collected by centrifugation, and 100 μL of the culture supernatant was replaced by the CellTiter-Glo reagent. After incubation for 15 minutes at room temperature, the plate was read with a luminometer.
Background: ATP-based viability assays read luminescence as a measure of living cells.

Experiment [3] deals with T2, Aurora A kinase (Homo sapiens, UniProt O14965).
T2 construct: purchased Upstate Biotech
T2 sequence (O14965 1-403): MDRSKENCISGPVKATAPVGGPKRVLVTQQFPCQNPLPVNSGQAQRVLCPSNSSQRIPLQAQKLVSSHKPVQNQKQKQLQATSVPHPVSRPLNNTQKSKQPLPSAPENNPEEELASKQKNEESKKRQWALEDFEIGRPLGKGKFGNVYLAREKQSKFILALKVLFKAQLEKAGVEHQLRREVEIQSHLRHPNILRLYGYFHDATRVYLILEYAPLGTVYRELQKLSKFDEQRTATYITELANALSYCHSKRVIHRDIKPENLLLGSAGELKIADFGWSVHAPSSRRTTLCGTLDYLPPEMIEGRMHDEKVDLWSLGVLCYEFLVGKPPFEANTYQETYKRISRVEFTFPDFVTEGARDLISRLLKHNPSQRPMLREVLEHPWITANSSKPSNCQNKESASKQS
The experiment in a line: Aurora A kinase assay (IMAP fluorescence polarization). The class given is biochemical. The conditions noted are these: 10 μM ATP; rounded to 1 significant figure; read-out: Aur-A IC50. An outline of the steps:
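Compounds (eight 3-fold dilutions, 2.5% DMSO final) were preincubated 5 min at room temperature with Aurora A kinase in buffer with 1 mM DTT. Reaction with 100 nM fluorescein-PKAtide and 10 μM ATP ran 45 min at room temperature, then was stopped with IMAP binding reagent; fluorescence polarization was read after 30 min.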
On the technique in general: Polarisation of emitted light reports the rotation of a fluorescent probe.

Experiment [4] deals with T3, Aurora B kinase (Homo sapiens, UniProt Q96GD4).
T3 construct: purchased BPS Bioscience
The experiment in a line: Aurora B kinase assay (IMAP fluorescence polarization). The class given is biochemical. The following applies: 10 μM ATP; rounded to 1 significant figure; read-out: Aur-B IC50. The procedure, abridged: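 Reaction started with 100 nM fluorescein-labelled PKAtide and 10 μM ATP, run 45 min at room temperature, then stopped with IMAP binding reagent (1:400). After 30 min shaking at room temperature, fluorescence polarization read; run in duplicate with solvent control.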

Experiment [5] deals with HCT116 (human colon carcinoma) cells. The experiment in a line: HCT116 cytotoxicity assay (CellTiter-Glo). Format: cell-based. The following applies: HCT-116, 72 h, cytotoxicity, three days culture, read-out: HCT116 IC50.
Experiment [6] relates to p-H3 in HCT116 cells. The experiment in a line: Histone phosphorylation (p-H3) assay. The conditions noted are these: Homo sapiens, HCT-116; HCT116 cells, 4 hr incubation; read-out: p-H3 IC50. Format: cell-based. The procedure, abridged: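 HCT116 cells (2.5×10^4/well, attached overnight) treated 4 h with 8-point 3-fold compound dilutions at 0.5% DMSO. Lysates dot-blotted onto nitrocellulose and probed for p-H3 with β-actin on the same membrane, fluorescent secondary antibodies, Odyssey scan; duplicate wells.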

T1 sequence (P35968 20-1356): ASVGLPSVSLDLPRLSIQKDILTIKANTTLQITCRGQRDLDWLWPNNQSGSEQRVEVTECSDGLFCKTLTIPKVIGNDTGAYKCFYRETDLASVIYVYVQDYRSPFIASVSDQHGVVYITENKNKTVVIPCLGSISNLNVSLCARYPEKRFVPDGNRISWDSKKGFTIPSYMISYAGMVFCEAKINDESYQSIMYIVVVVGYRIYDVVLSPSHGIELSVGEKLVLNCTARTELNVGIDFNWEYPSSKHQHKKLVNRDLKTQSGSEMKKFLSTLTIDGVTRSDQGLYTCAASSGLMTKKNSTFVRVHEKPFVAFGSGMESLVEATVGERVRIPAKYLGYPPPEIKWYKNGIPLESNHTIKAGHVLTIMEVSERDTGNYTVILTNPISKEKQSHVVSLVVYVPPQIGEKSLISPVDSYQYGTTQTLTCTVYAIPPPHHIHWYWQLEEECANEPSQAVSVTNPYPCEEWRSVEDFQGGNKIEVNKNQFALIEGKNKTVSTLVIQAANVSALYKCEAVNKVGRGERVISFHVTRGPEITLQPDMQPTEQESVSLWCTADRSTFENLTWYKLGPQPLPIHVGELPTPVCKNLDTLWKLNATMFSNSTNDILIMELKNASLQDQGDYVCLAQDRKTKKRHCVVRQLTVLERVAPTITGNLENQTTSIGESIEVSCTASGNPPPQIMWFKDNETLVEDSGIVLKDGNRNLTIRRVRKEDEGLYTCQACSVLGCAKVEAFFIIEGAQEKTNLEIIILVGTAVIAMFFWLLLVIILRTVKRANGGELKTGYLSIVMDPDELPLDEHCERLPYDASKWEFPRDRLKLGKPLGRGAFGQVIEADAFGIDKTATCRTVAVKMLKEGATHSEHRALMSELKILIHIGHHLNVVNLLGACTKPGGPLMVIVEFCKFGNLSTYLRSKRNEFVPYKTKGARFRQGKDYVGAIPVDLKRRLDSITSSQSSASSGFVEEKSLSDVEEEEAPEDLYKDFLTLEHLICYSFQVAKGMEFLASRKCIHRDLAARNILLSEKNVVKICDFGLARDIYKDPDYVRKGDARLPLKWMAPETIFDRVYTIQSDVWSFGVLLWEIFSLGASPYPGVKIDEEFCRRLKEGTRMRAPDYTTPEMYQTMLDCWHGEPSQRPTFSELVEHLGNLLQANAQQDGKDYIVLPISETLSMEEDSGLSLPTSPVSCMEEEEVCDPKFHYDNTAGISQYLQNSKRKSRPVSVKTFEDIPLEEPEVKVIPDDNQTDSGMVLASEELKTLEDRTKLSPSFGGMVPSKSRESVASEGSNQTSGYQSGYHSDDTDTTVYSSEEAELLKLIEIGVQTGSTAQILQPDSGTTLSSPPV
T3 sequence (Q96GD4 whole entry): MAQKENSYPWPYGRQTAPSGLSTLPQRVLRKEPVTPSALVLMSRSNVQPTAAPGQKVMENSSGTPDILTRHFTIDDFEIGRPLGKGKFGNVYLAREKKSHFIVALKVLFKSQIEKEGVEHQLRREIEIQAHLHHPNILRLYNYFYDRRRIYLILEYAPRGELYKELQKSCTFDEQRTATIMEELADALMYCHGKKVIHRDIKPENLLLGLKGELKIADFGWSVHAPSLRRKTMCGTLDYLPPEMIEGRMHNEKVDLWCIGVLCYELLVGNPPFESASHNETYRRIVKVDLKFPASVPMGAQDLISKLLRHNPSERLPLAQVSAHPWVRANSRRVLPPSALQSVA

`NC(=O)/C(=C1\Nc2ccccc2S1)c1nccc(-c2ccccc2)n1` [Compound 20A]: the IC50 is 200 nM in experiment [1]; 600 nM in experiment [2]; 90 nM in experiment [3]; 20 nM in experiment [4]; 8000 nM in experiment [5]; more than 5000 nM in experiment [6].

Consider `CCN(C(=O)[C@@H]1CCCN1C)c1ccc2c(c1)N/C(=C(/C(N)=O)c1nccc(C(F)(F)F)n1)N2` [Compound 145A], for which the IC50 in experiment [1] came out at 10 nM; in experiment [2], 400 nM; in experiment [3] it was 20 nM; in experiment [4] it was 4 nM; in experiment [5] it was 200 nM; in experiment [6] it was 80 nM.

`Cn1ccnc1CCc1ccc2c(c1)S/C(=C(/C(N)=O)c1nccc(C(F)(F)F)n1)N2` [Compound 97A]: the IC50 in experiment [2] was determined as 1000 nM; in experiment [3], 20 nM; in experiment [4] it was 7 nM; in experiment [5], 600 nM; in experiment [6] it was 100 nM.

In the case of `NC(=O)/C(=C1\Nc2ccc(CCN3CCC(F)(F)CC3)cc2S1)c1nccc(C(F)(F)F)n1` [Compound 104A], the IC50 in experiment [1] worked out at 60 nM; in experiment [2], 1000 nM; in experiment [3], 30 nM; in experiment [4], 10 nM; in experiment [5] it was 3000 nM; in experiment [6], 2000 nM.

On to `NC(=O)/C(=C1\Nc2ccc(NC(=O)C3CC3)cc2N1)c1nccc(C(F)(F)F)n1` [Compound 33A], for which the IC50 in experiment [1] was 9 nM; in experiment [2], 300 nM; in experiment [3] it was 2 nM; in experiment [4], 10 nM; in experiment [5], 300 nM; in experiment [6], 500 nM.

With `NC(=O)/C(=C1\Nc2ccc(-c3cccnc3)cc2S1)c1nccc(C(F)(F)F)n1` [Compound 108A], the IC50 stood at 60 nM in experiment [1]; 2000 nM in experiment [2]; 10 nM in experiment [3]; 10 nM in experiment [4]; 2000 nM in experiment [5]; 3000 nM in experiment [6].

Regarding `NC(=O)/C(=C1\Nc2ccccc2S1)c1nc(C(F)(F)F)cc(C(F)(F)F)n1` [Compound 9A], the IC50 in experiment [1] was 60 nM; in experiment [2], more than 20000 nM; in experiment [3], 10 nM; in experiment [4] it was 7 nM; in experiment [5], more than 20000 nM; in experiment [6] it was more than 5000 nM.

Take `NC(=O)C(=C1Nc2ccccc2S1)c1ncc(C(=O)O)c(C(F)(F)F)n1` (single isomer, unassigned) [Compound 5A, 2-[benzothiazol-2(3H)-ylidene]-2-(5-carboxy-4-trifluoromethylpyrimidin-2-yl)acetamide]: the IC50 in experiment [1] was 20 nM; in experiment [2], more than 10000 nM; in experiment [3] it was 20 nM; in experiment [4], 8 nM; in experiment [5], 10000 nM; in experiment [6], 3000 nM.

On to `NC(=O)/C(=C1\Nc2ccccc2S1)c1nc(-c2cccnc2)cc(C(F)(F)F)n1` [Compound 10A], for which the IC50 in experiment [1] came out at 40 nM; in experiment [2], 2000 nM; in experiment [3], 10 nM; in experiment [4], 10 nM; in experiment [5] it was 1000 nM; in experiment [6], 5000 nM.

For `NC(=O)/C(=C1\Nc2ccc(-c3ccccn3)cc2N1)c1nccc(C(F)(F)F)n1` [Compound 109A], the IC50 in experiment [1] is 50 nM; in experiment [2], 500 nM; in experiment [3] it was 20 nM; in experiment [4], 9 nM; in experiment [5], 3000 nM; in experiment [6] it was more than 5000 nM.

As for `COc1cc(C(F)(F)F)nc(/C(C(N)=O)=C2/Nc3ccccc3S2)n1` [Compound 6A], the IC50 in experiment [1] came to 200 nM; in experiment [2] it was 2000 nM; in experiment [3] it was 20 nM; in experiment [4], 10 nM; in experiment [5], 4000 nM; in experiment [6], 2000 nM.

In the case of `NC(=O)C(=C1Nc2ccccc2N1)c1nc(N)cc(C(F)(F)F)n1` [Compound 12A], the IC50 in experiment [1] is 40 nM; in experiment [2], 200 nM; in experiment [3], 7 nM; in experiment [4], 6 nM; in experiment [5], 400 nM; in experiment [6], 100 nM.

Consider `Cc1cc(C(F)(F)F)nc(/C(C(N)=O)=C2/Nc3ccccc3S2)n1` [Compound 8A], for which the IC50 turned out to be 60 nM in experiment [1]; 200 nM in experiment [2]; 10 nM in experiment [3]; 8 nM in experiment [4]; 2000 nM in experiment [5]; 1000 nM in experiment [6].

On to `NC(=O)/C(=C1\Nc2ccccc2S1)c1nc(N)cc(C(F)(F)F)n1` [Compound 13A], for which the concentration for half-maximal inhibition (IC50) came to 1000 nM in experiment [2]; 10 nM in experiment [3]; 3 nM in experiment [4]; 700 nM in experiment [5]; 800 nM in experiment [6].

For the compound `NC(=O)/C(=C1\Nc2ccccc2S1)c1nc(-c2ccccn2)cc(C(F)(F)F)n1` [Compound 11A], the IC50 was 3000 nM in experiment [2]; 40 nM in experiment [3]; 10 nM in experiment [4]; 4000 nM in experiment [5]; more than 5000 nM in experiment [6].

Take `Cc1cc(C(F)(F)F)nc(C(C(N)=O)=C2Nc3ccccc3N2)n1` [Compound 138A]: the IC50 amounted to 40 nM in experiment [1]; 400 nM in experiment [2]; 8 nM in experiment [3]; 8 nM in experiment [4]; 1000 nM in experiment [5]; 500 nM in experiment [6].

Turning to `NC(=O)/C(=C1\Nc2ccc(CCc3cccnc3)cc2S1)c1nccc(C(F)(F)F)n1` [Compound 99A], the IC50 in experiment [1] was determined as 100 nM; in experiment [2] it was 2000 nM; in experiment [3] it was 20 nM; in experiment [4], 7 nM; in experiment [5] it was 3000 nM; in experiment [6], 1000 nM.

On to `NC(=O)/C(=C1\Nc2ccc(C(=O)NCCCn3ccnc3)cc2S1)c1nccc(C(F)(F)F)n1` [Compound 46A], for which the IC50 was determined as 40 nM in experiment [1]; 200 nM in experiment [2]; 6 nM in experiment [3]; 10 nM in experiment [4]; 400 nM in experiment [5]; 200 nM in experiment [6].

Take `Cc1cc(C(F)(F)F)nc(C(C(N)=O)=C2Nc3ccc(NC(=O)[C@@H]4CCCN4C)cc3N2)n1` (single isomer, unassigned) [Compound 144A]: the IC50 turned out to be 500 nM in experiment [2]; 5 nM in experiment [3]; 6 nM in experiment [4]; 400 nM in experiment [5]; 100 nM in experiment [6].

`CCN(CCCn1ccnc1)C(=O)c1ccc2c(c1)S/C(=C(/C(N)=O)c1nccc(C(F)(F)F)n1)N2` [Compound 49A]: the IC50 turned out to be 1000 nM in experiment [2]; 3 nM in experiment [3]; 5 nM in experiment [4]; 400 nM in experiment [5]; 100 nM in experiment [6].
